Where a chain is given by its changes, count along the chain named. Where two headings read alike, the source gives them in different places.
What was measured:
[1] = target: T1, purified wild type MGL (wt-MGLL 6H-11-313) (Homo sapiens, UniProt Q99685)
T1 sequence (Q99685 1-303): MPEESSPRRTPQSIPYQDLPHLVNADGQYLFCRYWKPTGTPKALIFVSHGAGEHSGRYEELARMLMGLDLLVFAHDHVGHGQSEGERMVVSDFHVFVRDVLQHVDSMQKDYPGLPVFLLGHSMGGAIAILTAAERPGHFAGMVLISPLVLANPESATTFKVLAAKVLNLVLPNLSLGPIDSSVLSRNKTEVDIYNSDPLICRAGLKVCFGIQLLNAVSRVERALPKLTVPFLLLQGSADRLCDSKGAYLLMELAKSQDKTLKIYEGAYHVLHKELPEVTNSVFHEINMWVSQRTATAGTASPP

[2] = target: T2, mutant MGL (Homo sapiens, UniProt Q99685, L169S/L176S); experiment: MGL ThermoFluor assay - mutant; format: binding
T2 sequence (Q99685 1-303 L169S/L176S): T1 sequence (Q99685 1-303) with L169S, L176S

[3] = ThermoFluor thermal stability binding assay, read-out: MGL mutant ThermoFluor Kd
[4] = ThermoFluor concentration-response, read-out: MGL mutant ThermoFluor Kd

## CC1CN(C2CN(C(=O)c3ccc(-c4ccccc4)cc3)C2)CCN1C(=O)c1nccs1 (centres unmarked) [Cpd 117]
[1]
  IC50: 4230 nM

## O=C(c1ccccc1)N1CCN(C2CN(C(=O)c3cc4cc(C(F)(F)F)ccc4s3)C2)CC1 [Cpd 124]
[1]
  IC50: 321 nM

## O=C(c1cccc(-c2ccc(C(F)(F)F)cc2)c1)N1CC(N2CCN(C(=O)c3nccs3)CC2)C1 [Cpd 149]
[1]
  IC50: 76.9 nM

## O=C(c1ccc(-c2ccccc2)cc1)N1CC(N2CCN(C(=O)C3CC3)CC2)C1 [Cpd 303]
[1]
  IC50: 173 nM

## O=C(c1ccccc1)N1CCN(C2CN(C(=O)c3ccc(Oc4ccccc4Cl)nc3)C2)CC1 [Cpd 521]
[1]
  IC50: 2190 nM

## Cc1cn(-c2ccc(F)cc2)c2ccc(C(=O)N3CC(N4CCN(C(=O)c5ccccc5)CC4)C3)cc12 [Cpd 584]
[1]
  IC50: 105 nM

## CC(=O)N1c2ccc(-c3cccc(C(F)(F)F)c3)cc2CCC1C(=O)N1CC(N2CCN(C(=O)c3nccs3)CC2)C1 (centres unmarked) [Cpd 917]
[2]; [3]
  Kd: 5 µM

## O=C1Cc2cc(C(=O)N3CC(N4CCN(C(=O)c5nccs5)CC4)C3)ccc2N1 [Cpd 918]
[2]; [3]
  Kd: 2.5 µM

## O=C(c1cnon1)N1CC(N2CCN(C(=O)c3cc4cc(C(F)(F)F)ccc4s3)CC2)C1 [Cpd 921, 1-[1-(1,2,5-Oxadiazol-3-ylcarbonyl)azetidin-3-yl]-4-{[5-(trifluoromethyl)-1-benzothiophen-2-yl]carbonyl}piperazine]
[2]; [4]
  Kd: 4.26 µM

## O=C(c1ccc(Oc2ccccn2)cc1)N1CC(N2CCN(C(=O)c3cscn3)CC2)C1 [Cpd 922]
[2]; [4]
  Kd: 3.89 µM

## O=C(c1cc(Br)cc(C(F)(F)F)c1)N1CC(N2CCN(C(=O)c3cscn3)CC2)C1 [Cpd 923]
[2]; [4]
  Kd: 9.93 µM

## O=C(c1cscn1)N1CCN(C2CN(C(=O)c3cc(Br)ccc3F)C2)CC1 [Cpd 925]
[2]; [4]
  Kd: > 62.5 µM

## O=C(c1cc(F)cc(Br)c1)N1CC(N2CCN(C(=O)c3cscn3)CC2)C1 [Cpd 926]
[2]; [4]
  Kd: 9.44 µM

## O=C(c1ccc(CSc2cccc(Cl)c2)cc1)N1CC(N2CCN(C(=O)C(F)(F)F)CC2)C1 [Cpd 955]
[2]; [4]
  Kd: 1.11 µM

## O=C(c1ccc(OCc2cccc(Cl)c2)cc1)N1CC(N2CCN(C(=O)C(F)(F)F)CC2)C1 [Cpd 958]
[2]; [4]
  Kd: 0.216 µM

## O=C(c1ccc(OCc2ccc(Cl)s2)cc1)N1CC(N2CCN(C(=O)C(F)(F)F)CC2)C1 [Cpd 961]
[2]; [4]
  Kd: 0.576 µM

## O=C(c1ccc(OCc2ccc(Cl)s2)cc1)N1CC(N2CCN(C(=O)c3nccs3)CC2)C1 [Cpd 962]
[2]; [3]
  Kd: 0.005 µM

## O=C(c1ccc(OCc2ccc(Cl)s2)cc1)N1CC(N2CCN(C(=O)c3cscn3)CC2)C1 [Cpd 963]
[2]; [3]
  Kd: 0.102 µM

## Cc1nc(COc2ccc(Cl)cc2)sc1C(=O)N1CC(N2CCN(C(=O)c3cscn3)CC2)C1 [Cpd 966]
[2]; [4]
  Kd: 0.334 µM

## O=C(c1ccc(OCc2ccc3ccccc3n2)cc1)N1CC(N2CCN(C(=O)c3cscn3)CC2)C1 [Cpd 970]
[2]; [3]
  Kd: 0.535 µM

## O=C(c1ccc(CS(=O)(=O)c2cccc(C(F)(F)F)c2)cc1)N1CC(N2CCN(C(=O)c3cscn3)CC2)C1 [Cpd 977]
[2]; [4]
  Kd: 20 µM

## O=C(c1ccc(OCc2cncc(Cl)c2)cc1)N1CC(N2CCN(C(=O)c3cscn3)CC2)C1 [Cpd 981]
[2]; [3]
  Kd: 0.937 µM

## O=C(c1ccc(Cc2ccc(C(F)(F)F)cc2)cc1)N1CC(N2CCN(C(=O)c3nccs3)CC2)C1 [Cpd 985]
[2]; [4]
  Kd: 0.005 µM

## O=C(c1ccc2c(ccn2C(=O)c2ccc3c(c2)CCN3)c1)N1CC(N2CCN(C(=O)c3nccs3)CC2)C1 [Cpd 988, 1-(2,3-Dihydro-1H-indol-5-ylcarbonyl)-5-({3-[4-(1,3-thiazol-2-ylcarbonyl)piperazin-1-yl]azetidin-1-yl}carbonyl)-1H-indole]
[2]; [4]
  Kd: 0.04 µM

## O=C(c1nccs1)N1CCN(C2CN(C(=O)c3cccc4nc(Cc5ccccc5F)[nH]c34)C2)CC1 [Cpd 989]
[2]; [3]
  Kd: 1.25 µM

## O=C(c1nccs1)N1CCN(C2CN(C(=O)c3cccc4nc(Cc5cccc(F)c5)[nH]c34)C2)CC1 [Cpd 990]
[2]; [3]
  Kd: 1 µM

## O=C(c1nccs1)N1CCN(C2CN(C(=O)c3cccc4nc(Cc5ccc(Cl)cc5)[nH]c34)C2)CC1 [Cpd 991]
[2]; [3]
  Kd: 0.2 µM

## Cc1ccnc(-n2ccc3cc(C(=O)N4CC(N5CCN(C(=O)C(F)(F)F)CC5)C4)ccc32)c1 [Cpd 1199, 1-(4-Methylpyridin-2-yl)-5-({3-[4-(trifluoroacetyl)piperazin-1-yl]azetidin-1-yl}carbonyl)-1H-indole]
[2]; ThermoFluor, compound concentration measured by qNMR, read-out: MGL mutant ThermoFluor qKd (using qNMR conc.)
  Kd: 0.264 µM

## O=C(c1ccc2c(ccn2-c2ncc(F)cn2)c1)N1CC(N2CCN(C(=O)c3cscn3)CC2)C1 [Cpd 1248, 1-(5-Fluoropyrimidin-2-yl)-5-({3-[4-(1,3-thiazol-4-ylcarbonyl)piperazin-1-yl]azetidin-1-yl}carbonyl)-1H-indole]
[2]; [4]
  Kd: 0.043 µM

## COc1cc(C(=O)N2CC(N3CCN(C(=O)c4nccs4)CC3)C2)ccc1-c1ccccc1 [Cpd 1377]
[2]; [4]
  Kd: 0.006 µM

## O=C(c1cscn1)N1CCN(C2CN(C(=O)c3cccc4nc(-c5ccc(Cl)cc5)oc34)C2)CC1 [Cpd 1380, 2-(4-Chlorophenyl)-7-({3-[4-(1,3-thiazol-4-ylcarbonyl)piperazin-1-yl]azetidin-1-yl}carbonyl)-1,3-benzoxazole]
[2]; [3]
  Kd: 0.246 µM

## O=C(c1ccc(-c2ccccc2)cc1)N1CCN(C2CN(C(=O)c3ccc[nH]3)C2)CC1 [Cpd 1383, 1-(Biphenyl-4-ylcarbonyl)-4-[1-(1H-pyrrol-2-ylcarbonyl)azetidin-3-yl]piperazine]
[2]; [4]
  Kd: 0.108 µM

## O=C(c1nccs1)N1CCN(C2CN(C(=O)c3nc(-c4ccccc4)oc3C(F)(F)F)C2)CC1 [Cpd 1385]
[2]; [3]
  Kd: 0.206 µM

## Cc1nc(-c2ccc(F)cc2)sc1C(=O)N1CC(N2CCN(C(=O)c3cscn3)CC2)C1 [Cpd 1386]
[2]; [3]
  Kd: 0.133 µM

## O=C(c1cscn1)N1CCN(C2CN(C(=O)c3cccc4nc(-c5cccc(Cl)c5)[nH]c34)C2)CC1 [Cpd 1389]
[2]; [3]
  Kd: 0.422 µM

## O=C(c1nccs1)N1CCN(C2CN(C(=O)c3cnn(-c4ccccc4)c3C(F)(F)F)C2)CC1 [Cpd 1392]
[2]; [3]
  Kd: 0.659 µM

## O=C(c1cscn1)N1CCN(C2CN(C(=O)c3csc(-c4cc(Cl)cc(Cl)c4)n3)C2)CC1 [Cpd 1395]
[2]; [3]
  Kd: 1.81 µM

## Cc1oc(-c2ccccc2)cc1C(=O)N1CC(N2CCN(C(=O)c3cscn3)CC2)C1 [Cpd 1396]
[2]; [3]
  Kd: 0.317 µM

## O=C(c1cscn1)N1CCN(C2CN(C(=O)c3cc(-c4ccccc4)oc3C(F)(F)F)C2)CC1 [Cpd 1397]
[2]; [3]
  Kd: 0.5 µM

## O=C(c1ccc(-c2ccccc2)cc1)N1CC(N2CCN(C(=O)C3CCCC3)CC2)C1 [Cpd 1398]
[2]; [3]
  Kd: 0.182 µM

## O=C(c1ccc(-c2ccccc2)cc1)N1CCN(C2CN(C(=O)c3ncccn3)C2)CC1 [Cpd 1400, 2-({3-[4-(Biphenyl-4-ylcarbonyl)piperazin-1-yl]azetidin-1-yl}carbonyl)pyrimidine]
[2]; [4]
  Kd: 4.07 µM

## O=C(c1ccc(-c2ccccc2)cc1)N1CCN(C2CN(C(=O)c3nccs3)C2)C(c2ccccc2)C1 (centres unmarked) [Cpd 1401, 4-(Biphenyl-4-ylcarbonyl)-2-phenyl-1-[1-(1,3-thiazol-2-ylcarbonyl)azetidin-3-yl]piperazine]
[2]; [4]
  Kd: 1.25 µM

## O=C(c1ccc(-c2ccccc2)cc1)N1CCN(C2CN(C(=O)c3cscn3)C2)C(c2ccccc2)C1 (centres unmarked) [Cpd 1402, 4-(Biphenyl-4-ylcarbonyl)-2-phenyl-1-[1-(1,3-thiazol-4-ylcarbonyl)azetidin-3-yl]piperazine]
[2]; [4]
  Kd: 2 µM

## O=C(c1cscn1)N1CCN(C2CN(C(=O)c3nc(-c4ccccc4)oc3C(F)(F)F)C2)CC1 [Cpd 1403]
[2]; [3]
  Kd: 1.69 µM

## O=C(c1ccc(-c2ccccc2)cc1)N1CC(N2CCN(C(=O)c3nccs3)C(c3ccccc3)C2)C1 (centres unmarked) [Cpd 1404, 4-[1-(Biphenyl-4-ylcarbonyl)azetidin-3-yl]-2-phenyl-1-(1,3-thiazol-2-ylcarbonyl)piperazine]
[2]; [4]
  Kd: > 31.2 µM

## Cc1nc(-c2cccc(C(F)(F)F)c2)sc1C(=O)N1CC(N2CCN(C(=O)c3nccs3)CC2)C1 [Cpd 1407, 1-[1-({4-Methyl-2-[3-(trifluoromethyl)phenyl]-1,3-thiazol-5-yl}carbonyl)azetidin-3-yl]-4-(1,3-thiazol-2-ylcarbonyl)piperazine]
[2]; [3]
  Kd: 0.005 µM

## Cc1cc(-n2ccc3cc(C(=O)N4CC(N5CCN(C(=O)c6cscn6)CC5)C4)ccc32)ccc1C#N [Cpd 1421, 2-Methyl-4-[5-({3-[4-(1,3-thiazol-4-ylcarbonyl)piperazin-1-yl]azetidin-1-yl}carbonyl)-1H-indol-1-yl]benzonitrile]
[2]; ThermoFluor, compound concentration measured by qNMR, read-out: MGL mutant ThermoFluor qKd (μM) (using qNMR conc.)
  Kd: 0.044 µM

## O=C(c1ccc2c(c1)C(Cc1ccccc1)(Cc1ccccc1)C(=O)N2Cc1ccccc1)N1CC(N2CCN(C(=O)c3nccs3)CC2)C1 [Cpd 1431]
[2]; [4]
  Kd: 0.035 µM

## O=C(c1ccc(Cc2ccccc2)cc1)N1CC(N2CCN(C(=O)c3nccs3)C(c3ccccc3)C2)C1 (centres unmarked) [Cpd 1464, 4-{1-[(4-Benzylphenyl)carbonyl]azetidin-3-yl}-2-phenyl-1-(1,3-thiazol-2-ylcarbonyl)piperazine]
[2]; [4]
  Kd: > 31.2 µM

## O=C(c1cscn1)N1CCN(C2CN(C(=O)c3cnn(-c4ccccc4)c3C(F)(F)F)C2)CC1 [Cpd 1477]
[2]; [3]
  Kd: > 31.2 µM

## O=C(c1ccc(-c2ccccc2)cc1)N1CC(N2CCN(C(=O)c3ncccn3)CC2)C1 [Cpd 1478]
[2]; [3]
  Kd: > 31.2 µM

## O=C(c1ccc(-c2ccccc2)cc1)N1CC(N2CCN(C(=O)c3cscn3)C(c3ccccc3)C2)C1 (centres unmarked) [Cpd 1481]
[2]; [3]
  Kd: > 31.2 µM

## O=C(c1ccccc1)N1CCN(C2CN(C(=O)c3ccc(Oc4ccccn4)cc3)C2)CC1 [Cpd 1484]
[2]; [4]
  Kd: 20 µM
